# In PubChem BioAssay (NCI):
#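 Interpolation was linear, between the two tested concentrations surrounding the appropriate level; five concentrations were tested over 48 hours in 96-well plates. TGI denotes the concentration required for complete inhibition of growth.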
# Columns and labels:
# Assay in all cases: DTP human tumour cell line panel, 48 h
# SF-539 CNS = test system: SF-539 CNS
# HOP-62 NSCLC = test system: HOP-62 NSCLC
# HCT-15 colon = test system: HCT-15 colon
# MDA-MB-435 = test system: MDA-MB-435
# RPMI-8226 leukemia = test system: RPMI-8226 leukemia
# HL-60(TB) leukemia = test system: HL-60(TB) leukemia
# ACHN renal = test system: ACHN renal
# MDA-N = test system: MDA-N
# T-47D breast = test system: T-47D breast
# 786-0 renal = test system: 786-0 renal
# HS 578T breast = test system: HS 578T breast
compound,measurement,setting,value
COC(=O)NC(Cc1ccccc1)NC(=O)OC(C)(C)C (stereo not drawn),TGI,SF-539 CNS,> 100 µM
same,TGI,HOP-62 NSCLC,> 100 µM
same,TGI,HCT-15 colon,> 100 µM
same,TGI,MDA-MB-435,> 100 µM
same,TGI,RPMI-8226 leukemia,> 100 µM
same,TGI,HL-60(TB) leukemia,> 100 µM
same,TGI,ACHN renal,> 100 µM
same,TGI,MDA-N,> 100 µM
same,TGI,T-47D breast,> 100 µM
same,TGI,786-0 renal,> 100 µM
same,TGI,HS 578T breast,> 100 µM
Clc1nc2nc(N3CCNCC3)nc(N3CCCC3)c2[nH]1,TGI,SF-539 CNS,33.8 µM
same,TGI,HOP-62 NSCLC,36.2 µM
same,TGI,HCT-15 colon,35.3 µM
same,TGI,MDA-MB-435,34.5 µM
same,TGI,RPMI-8226 leukemia,48 µM
same,TGI,HL-60(TB) leukemia,42.8 µM
same,TGI,ACHN renal,37.7 µM
same,TGI,MDA-N,32.1 µM
same,TGI,T-47D breast,33.6 µM
same,TGI,786-0 renal,32.1 µM
same,TGI,HS 578T breast,> 100 µM
O=C(CSc1nc2ccc(I)cc2c(=O)n1Cc1ccccc1)Nc1ccccc1,TGI,SF-539 CNS,10.6 µM
same,TGI,HOP-62 NSCLC,26.7 µM
same,TGI,HCT-15 colon,> 100 µM
same,TGI,MDA-MB-435,> 100 µM
same,TGI,RPMI-8226 leukemia,> 100 µM
same,TGI,HL-60(TB) leukemia,> 100 µM
same,TGI,ACHN renal,> 100 µM
same,TGI,MDA-N,> 100 µM
same,TGI,T-47D breast,> 100 µM
same,TGI,786-0 renal,23.9 µM
same,TGI,HS 578T breast,17 µM
